One assay deals with MM1S cells. Nature of the assay: CellTiter-Glo luminescent cell viability assay. It counts as cell-based, human. The conditions noted are these: MM1S (sensitive) versus K562 (insensitive) cells, 6 days. As to the method: FIGS. 2A, 2B-1, 2B-2 and 2C are provided. […] For a biological replicate SILAC labeling for the two conditions was switched.
On the respective days, total cellular ATP content was assessed using CellTiter-Glo® Luminescent Cell Viability Assay (Promega) according to the protocol. Luminescence was assessed by a multimode detector DTX880 (Beckman Coulter).
A general note: ATP-based viability assays read luminescence as a measure of living cells.

The next assay concerns the target T1, CBR1 (Homo sapiens, UniProt P16152).
T1 sequence (P16152 1-277): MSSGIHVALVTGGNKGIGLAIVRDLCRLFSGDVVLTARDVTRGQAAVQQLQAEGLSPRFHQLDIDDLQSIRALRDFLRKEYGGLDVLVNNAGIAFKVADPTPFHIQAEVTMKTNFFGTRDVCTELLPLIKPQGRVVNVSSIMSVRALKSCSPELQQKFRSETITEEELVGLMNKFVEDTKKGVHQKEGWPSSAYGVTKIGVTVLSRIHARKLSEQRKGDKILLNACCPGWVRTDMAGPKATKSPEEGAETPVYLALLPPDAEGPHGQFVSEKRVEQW
Nature of the assay: CBR1 biochemical assays.

For another assay, the target named is T2, RAB28 (Homo sapiens, UniProt P51157).
T2 construct: expressed in transfected cells; host or cells: 293T
Nature of the assay: ORF-firefly luciferase reporter assay in 293T cells. The conditions noted are these: 1 μM lenalidomide, 24 hours. It counts as cell-based. As to the method:
The cDNAs of candidate genes, fused to firefly luciferase (FFluc), were expressed in 293T cells.
The luciferase reporter plasmid CMV-IRES-RenillaLUC-IRES-Gateway-FireflyLUC (11) was a kind gift from William G. Kaelin (Dana-Farber Cancer Institute). Cloning of cDNAs was performed using Gateway LR reaction (invitrogen). […] After an additional 24 hours, dual luciferase assays were performed using the Dual-Glo Luciferase Assay System (Promega) according to the manufacturer's protocol.
On the technique in general: A reporter such as luciferase makes a cellular process visible.

Assay [1] concerns IKZF1 and IKZF3. Description: Immunoblot of IKZF1 and IKZF3 protein in multiple myeloma cells. The assay is classed as cell-based, human. On the technique in general: In western blotting, separated proteins are transferred to a membrane and probed.
Protocol: The FK2 antibody detects covalently linked ubiquitin.
Protein lysates were run on Tris-HCl, 1 mm Criterion™ Precast gels (Bio-Rad) at a constant voltage. Proteins were transferred onto Imobilon-P transfer membranes (Millipore) at a constant amperage. Before staining, blots were blocked in 5% BSA in TBST for 30 minutes.
Another assay concerns IRF4. Nature of the assay: IRF4 protein and mRNA levels in MM1S cells. The assay is classed as cell-based, human. The text has this: FIG. 14E is a graph showing IRF4 RNA expression levels after IKZF3 knockdown.
In assay [2] the test system is CSNK1A1. Nature of the assay: RQ-PCR of CSNK1A1 mRNA in human cells. It counts as cell-based. As to the method:
Relative expression levels were calculated using the ΔΔCT method.

Assay [3] concerns CSNK1A1. Nature of the assay: Immunoblot of CSNK1A1 in murine Baf3 and primary murine AML cells, with or without expressed CRBN variants. The assay is classed as cell-based, mouse. As to the method: CSNK1A1 protein levels were assessed by immunoblot. […] Non-conserved amino acids are indicated by red bars.
Variants of human and mouse CRBN were cloned into a modified pRSF91 backbone to generate SFFV-CRBN-IRES-GFP-T2A-Puro retroviral constructs. 200,000 Ba/F3 cells were infected with ecotropic retrovirus in the presence of 2 μg/ml polybrene. After 24 hours, 1 μg/ml puromycin (Gibco) was added and cells were selected for 3-4 days. […] Protein lysates were harvested and immunoblotted for CK1α as described above.

The subject of the next assay is IKZF3. Nature of the assay: Immunoblot of IKZF3 in T cells isolated from mCRBN^I391V knock-in or wild type mice. It counts as cell-based, mouse. As to conditions: 0, 1 or 10 μM. The text has this: IKZF3 protein levels was detected by immunoblot (IB). Actin was included as a protein loading control.
In assay [4] the test system is IKZF1 and IKZF3. Description: ORF-firefly luciferase reporter assay in 293T cells. The conditions noted are these: 1 μM MLN-4924. It counts as cell-based, human.
Assay [5] has as its target T3, CSNK1A1 (Homo sapiens, UniProt P48729+Q96SW2).
T3 construct: endogenous in cells; host or cells: KG-1
Nature of the assay: Immunoblot of CSNK1A1 (CK1α) protein in human cell lines. The assay is classed as cell-based. The conditions noted are these: KG-1 cells, 6 hours. As to the method:
Protein lysates were run on Tris-HCl, 1 mm Criterion™ Precast gels (Bio-Rad) or NuPAGE Bis-Tris gels (Novex) gels at a constant voltage. Proteins were transferred onto Immobilon-P transfer membranes (Millipore) at a constant amperage. Before staining with primary antibodies, blots were blocked in 5% non-fat dry milk (Santa Cruz) or BSA in TBST for 30 minutes.
Secondary antibodies were HRP conjugated Bovine anti-Goat (Jackson ImmunoResearch) and HRP conjugated donkey anti-rabbit (GE Healthcare). Supersignal chemi-luminescent substrate was used for detection. For re-probing, blots were stripped in Restore Western Blot Stripping Buffer (Thermo Scientific), activated in methanol, and re-blocked.

Entries after “also recorded” stand apart in the source; their conditions may differ. Residues, ends and D or L forms follow the SMILES beside them. *: point of attachment. Cbz = O=C(OCc1ccccc1)*

T3 sequence (P48729 whole entry): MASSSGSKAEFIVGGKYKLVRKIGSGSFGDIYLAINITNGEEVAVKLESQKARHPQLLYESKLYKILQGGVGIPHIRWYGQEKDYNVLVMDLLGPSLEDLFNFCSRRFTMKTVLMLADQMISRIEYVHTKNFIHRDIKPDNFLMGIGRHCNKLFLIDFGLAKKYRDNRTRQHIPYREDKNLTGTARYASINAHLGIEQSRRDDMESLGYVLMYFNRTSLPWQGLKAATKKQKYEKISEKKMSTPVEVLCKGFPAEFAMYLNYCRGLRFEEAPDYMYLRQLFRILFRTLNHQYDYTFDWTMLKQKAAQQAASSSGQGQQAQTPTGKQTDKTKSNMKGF
T3 sequence (Q96SW2 whole entry): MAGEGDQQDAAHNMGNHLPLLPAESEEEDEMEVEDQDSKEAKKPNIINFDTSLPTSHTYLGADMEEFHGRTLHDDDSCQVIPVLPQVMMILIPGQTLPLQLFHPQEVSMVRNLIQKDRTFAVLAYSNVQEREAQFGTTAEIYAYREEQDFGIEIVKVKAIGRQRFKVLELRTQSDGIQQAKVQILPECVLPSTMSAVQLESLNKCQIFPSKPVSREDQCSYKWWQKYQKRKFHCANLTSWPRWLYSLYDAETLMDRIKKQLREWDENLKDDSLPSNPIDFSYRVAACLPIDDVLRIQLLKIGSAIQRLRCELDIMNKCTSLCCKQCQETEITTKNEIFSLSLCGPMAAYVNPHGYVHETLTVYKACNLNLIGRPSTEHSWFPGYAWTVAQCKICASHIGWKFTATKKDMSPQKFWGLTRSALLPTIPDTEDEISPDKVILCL
T3 sequence (Q16531 whole entry partner): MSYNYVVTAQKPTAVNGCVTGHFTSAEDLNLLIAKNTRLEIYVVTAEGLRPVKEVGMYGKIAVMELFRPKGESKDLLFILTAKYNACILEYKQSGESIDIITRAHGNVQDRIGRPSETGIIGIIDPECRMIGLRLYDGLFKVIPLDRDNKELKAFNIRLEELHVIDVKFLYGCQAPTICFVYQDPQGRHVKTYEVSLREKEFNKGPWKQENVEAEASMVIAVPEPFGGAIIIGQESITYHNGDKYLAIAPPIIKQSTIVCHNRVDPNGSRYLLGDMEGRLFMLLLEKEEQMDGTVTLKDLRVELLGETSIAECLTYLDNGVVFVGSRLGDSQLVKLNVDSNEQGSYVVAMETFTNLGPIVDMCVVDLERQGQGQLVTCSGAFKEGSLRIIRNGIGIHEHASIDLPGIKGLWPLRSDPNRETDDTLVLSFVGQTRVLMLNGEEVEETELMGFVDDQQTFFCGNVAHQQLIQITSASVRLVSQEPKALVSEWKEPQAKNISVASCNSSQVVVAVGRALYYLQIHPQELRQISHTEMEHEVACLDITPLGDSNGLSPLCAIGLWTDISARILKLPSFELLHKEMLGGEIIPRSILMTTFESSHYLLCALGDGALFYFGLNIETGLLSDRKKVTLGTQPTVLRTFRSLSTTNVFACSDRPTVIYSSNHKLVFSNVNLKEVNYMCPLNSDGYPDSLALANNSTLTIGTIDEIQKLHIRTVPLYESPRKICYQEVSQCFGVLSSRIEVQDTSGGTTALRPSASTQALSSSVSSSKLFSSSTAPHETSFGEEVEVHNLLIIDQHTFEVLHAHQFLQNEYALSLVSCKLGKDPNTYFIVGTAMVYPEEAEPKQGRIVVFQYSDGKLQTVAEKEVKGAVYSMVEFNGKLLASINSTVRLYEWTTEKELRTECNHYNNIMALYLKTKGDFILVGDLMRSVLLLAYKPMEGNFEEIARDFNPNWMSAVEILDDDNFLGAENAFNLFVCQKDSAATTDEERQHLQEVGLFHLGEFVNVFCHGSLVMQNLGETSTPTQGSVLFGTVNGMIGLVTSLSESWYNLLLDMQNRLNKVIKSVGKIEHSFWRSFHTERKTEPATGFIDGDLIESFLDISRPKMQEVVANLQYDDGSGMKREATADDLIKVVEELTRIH

As to `CCCCNC(=O)CCCNc1cccc2c1CN(C1CCC(=O)NC1=O)C2=O` (stereo not drawn) [lenalidomide derivative, N-butyl-4-((2-(2,6-dioxopiperidin-3-yl)-1-oxoisoindolin-4-yl)amino)butanamide], the “Biological activity / growth inhibition compared with lenalidomide” value with MM1S cells is “retained the biological activity of lenalidomide, including selective growth inhibition of multiple myeloma cells”.

As for `Nc1cccc2c1CN(C1CCC(=O)NC1=O)C2=O` (stereo not drawn) [lenalidomide], the “Inhibition of CBR1” value on CBR1 is on record as “did not interact with CBR1 in direct binding assays or inhibit CBR1”. The “Luciferase level of FFluc fused to RAB28” value at RAB28 is “not altered”. Moreover, in the assay with IKZF1 and IKZF3 [1], the “Degradation of IKZF1 and IKZF3 with CRBN mutant that does not bind lenalidomide” value is “abrogated degradation of IKZF1 and IKZF3”. Besides, in the assay with IRF4 (12 hours), the “IRF4 levels in proteomic analysis” value is “only slightly decreased”. Besides, in the assay with IRF4 (24 hours and longer), the “IRF4 mRNA and protein” value is “decreased expression of IRF4; also recorded: significant decrease of IRF4 mRNA and protein”. In addition, the “CSNK1A1 mRNA / RNA expression” value with CSNK1A1 [2] was “No significant change; also recorded: did not alter CSNK1A1 mRNA levels”. Further, in the assay on CSNK1A1 [3], the “CSNK1A1 degradation in Baf3 cells expressing mCRBN^I391V” value is “conferred sensitivity to lenalidomide-induced degradation of CSNK1A1” and the “CSNK1A1 protein levels in murine cells over-expressing human CRBN” value is reported as “sufficient to confer lenalidomide sensitivity to CSNK1A1; also recorded: reduced CSNK1A1 levels; also recorded: resulted in a decrease of CSNK1A1 protein levels”. Moreover, in the assay with CSNK1A1 [3] (unmodified cells, 24 hours), the “CSNK1A1 protein levels in murine Baf3 cells or primary murine (MLL-AF9) leukemia cells” value is “No change; also recorded: did not decrease Csnk1a1 protein levels”. Further, in the assay on IKZF3, the “IKZF3 degradation in T cells from wild type mice” value is “No IKZF3 degradation was observed”.

For the compound `NS(=O)(=O)OC[C@@H]1C[C@@H](n2ccc3c(N[C@H]4CCc5ccccc54)ncnc32)C[C@@H]1O` [MLN-4924], the “Effect on lenalidomide-induced decrease of FFluc-fused IKZF3” value in the assay on IKZF1 and IKZF3 [4] is recorded as “prevented the lenalidomide-induced decrease”. For the same compound, the “Effect on lenalidomide-induced decrease of endogenous IKZF1 and IKZF3” value with IKZF1 and IKZF3 [1] (MM cells, 1 μM MLN-4924) was “prevented the lenalidomide-induced decrease”. At CSNK1A1 [5], the “Effect on lenalidomide-induced decrease in CSNK1A1 protein levels” value was “abrogated”.

For the compound `CC(C)C[C@@H](C=O)NC(=O)[C@H](CC(C)C)NC(=O)[C@H](CC(C)C)NC(=O)OCc1ccccc1` [MG132] (Cbz-Leu-Leu-Leu-aldehyde), the “Effect on lenalidomide-induced decrease in CSNK1A1 protein levels” value on CSNK1A1 [5] is “abrogated”.
